The numbers were not newly measured in patent US6586576B2, “Preparation method of azithromycin hydrates” (Teva Pharmaceutical Industries LTD, priority 2000, dated 2003), which cites them from elsewhere.

Read-outs that look alike come from different tables or passages of the source.

The conditions of data set [1]: crystal/hydrate form, per EP 298 650 and CN 1,093,370.

Consider `CC[C@H]1OC(=O)[C@H](C)[C@@H](O[C@H]2C[C@@](C)(OC)[C@@H](O)[C@H](C)O2)[C@H](C)[C@@H](O[C@@H]2O[C@H](C)C[C@H](N(C)C)[C@H]2O)[C@](C)(O)C[C@@H](C)CN(C)[C@H](C)[C@@H](O)[C@]1(C)O` [azithromycin dihydrate], for which the hygroscopic nature entry in data set [1] (dihydrate) is “less hygroscopic than the previously known azithromycin monohydrate”. As for `CC[C@H]1OC(=O)[C@H](C)[C@@H](O[C@H]2C[C@@](C)(OC)[C@@H](O)[C@H](C)O2)[C@H](C)[C@@H](O[C@@H]2O[C@H](C)C[C@H](N(C)C)[C@H]2O)[C@](C)(O)C[C@@H](C)CN(C)[C@H](C)[C@@H](O)[C@]1(C)O` [azithromycin monohydrate], the hygroscopic nature entry in data set [1] (monohydrate) was “hygroscopic”. Regarding `CC[C@H]1OC(=O)C(C)C(OC2CC(C)(OC)C(O)C(C)O2)C(C)C(OC2OC(C)CC(N(C)C)C2O)C(C)(O)CC(C)CN(C)C(C)C(O)C1(C)O` (stereo partly drawn) [azithromycin, 9-deoxo-9a-aza-9a-methyl-9a-homoerythromycin A], the “stability under acidic conditions” value is “not stable”.
